Test results reported in patent publication US20100267753A1, “METHODS OF TREATING DISORDERS ASSOCIATED WITH PROTEIN KINASE CK2 ACTIVITY” (priority 2009, published 2010).
Entries after “also recorded” stand apart in the source; their conditions may differ. Read-outs that look alike come from different tables or passages of the source.

Tests used:
[1] = test system: formalin-induced persistent pain; assay: Formalin-induced persistent pain model (flinching); assay type: in vivo, ICR mice
Procedure: See Hunskaar, et al., “The formalin test in mice: Dissociation between inflammatory and non-inflammatory pain,” Pain, vol. […] 89, 53-63 (2000). These tests were conducted with ICR mice, in accordance with guidelines established by the International Association for the Study of Pain. Compounds of the invention were used as solutions of about 3-20 mg/mL in aqueous solution at about pH 8. […] The test animals were monitored for at least 40 minutes, during which time the number of flinches occurring during each 5-minute period were observed and recorded. A cohort of 12 animals were used for each dose level of each compound tested.
The compounds were administered orally in a single dose, of 30, 100, and 200 mg/kg, one hour prior to injection of formalin Pain response was measured by flinching frequency.

HIV-1 = assay: U1 latent infection assay, antiviral (reverse transcriptase); assay type: cell-based; settings: U1 latent infection assay
Procedure: Histocytic leukemia cell line U937, latently infected with HIV-1, are treated with TNFα to induce virus expression in the presence of test compound. Antiviral activity is determined as a reduction in reverse transcriptase after 72 hr incubation.
TI=TC/IC; also referred to as Therapeutic Index values (TI) or Antiviral Index (AI)
The histocytic leukemia cell line U937, latently infected with HIV-1, was treated with TNFα to induce virus expression in the presence of test compound. Antiviral activity was determined as a reduction in reverse transcriptase after 72 hr incubation. Temacrazine, an inhibitor of HIV transcription initiation, was used as the positive control for the assay.

[2] = test system: CFA-induced thermal hyperalgesia; assay: CFA-induced thermal hyperalgesia model (Hargreaves); assay type: in vivo, ICR mice; settings: 25, 75 or 150 mg/kg BID for four days, dosed as suspensions
Procedure: The observations of pain responses were done blindly.
[…] On day 4, test subjects received a single injection of CFA (20 microliters) subcutaneously in the plantar surface of the left rear paw. CFA was injected subcutaneously into the plantar surface of the left hind paw of each test subject, under isoflurane anesthesia. […] On day 5, thermal responses were measured prior to treatment with the compound and again 1, 2, and 4 hours after treatment with […]. Withdrawal latencies were measured in response to thermal stimulus by the Hargreaves method. Naproxen was used as a positive control.

[3] = Pharmacokinetics in mouse (IV bolus or oral dose); assay type: in vivo; settings: Mouse; for Cmax: read-out: Cmax
Procedure: The pharmacokinetics properties of drugs were investigated in three species, following an intravenous (IV) bolus or oral (PO) dose of Compound K at the dosages indicated in the chart. Blood samples were collected at predetermined times and the plasma separated. Plasma was separated from the blood samples collected at 5, 15 and 30 minutes and 1, 2, 4, 8 and 24 hours post-dose.
Drug levels were quantified by the LC/MS/MS method described below. Noncompartmental pharmacokinetic analysis was applied for intravenous administration. […] The terminal t1/2 and C0 were calculated using the last three and the first three data points, respectively
Bioanalysis was performed using a Quattro Micro LC/MS/MS instrument in the MRM detection mode, with an internal standard (1S). Briefly, 15 μL plasma samples were prepared for analysis using protein precipitation with 120 μL of acetonitrile. The supernatants were transferred into a 96 well plate and subjected to LC-MS/MS analysis using a Phenomenex Polar-RP HPLC column. The mobile phases were 10 mM NH4HCO3 in water (Solution-A) and 10 mM NH4HCO3 in methanol (Solution-B). The column was initially equilibrated with 25% Solution-B and followed with 100% Solution B over 5 minutes. […] Quantitation of the analytes was performed in the batch mode with two bracketing calibration curves according to the bioanalytical sample list.

HIV-1 isolates = assay: PBMC assay, virus production; assay type: cell-based
Procedure: Acute infection of HIV-1 isolates (CXCR4-tropic HIV-1 Subtype B and CCR5-tropic HIV-1 Subtype) using fresh human PBMCs from multiple donors (PMA and IL-2 stimulated). Antiviral activity determined as a reduction in reverse transcriptase after 7-day incubation.
Antiviral activity was determined as a reduction in reverse transcriptase after 7-day incubation. AZT, a nucleoside analog reverse transcriptase inhibitor, was used as the positive control for the assay.

[4] = Phase I clinical study, safety and pharmacokinetics; assay type: in vivo, human
Procedure: Oral doses are administered twice daily for twenty-one consecutive days of a four week cycle. […] Response by RECIST is determined after every 2 cycles. Serial blood and plasma samples are collected on the first and final dosing days of Cycle 1 (i.e., Day 1 and Day 21) for pharmacokinetic analysis and for pharmacodynamic biomarker evaluations (specifically, total and phosphorylated forms of p21 and Akt).
Patients in Cohorts 1-3 were dosed twice daily (BID) with oral capsules.

xenograft tumor = assay: Xenograft tumor growth (pre-clinical); assay type: in vivo; settings: single agent
DYRK2 = molecular target: T1, DYRK2 (Homo sapiens, UniProt Q92630); assay: Kinase panel IC-50, DYRK2; assay type: biochemical
T1 sequence (Q92630 1-601): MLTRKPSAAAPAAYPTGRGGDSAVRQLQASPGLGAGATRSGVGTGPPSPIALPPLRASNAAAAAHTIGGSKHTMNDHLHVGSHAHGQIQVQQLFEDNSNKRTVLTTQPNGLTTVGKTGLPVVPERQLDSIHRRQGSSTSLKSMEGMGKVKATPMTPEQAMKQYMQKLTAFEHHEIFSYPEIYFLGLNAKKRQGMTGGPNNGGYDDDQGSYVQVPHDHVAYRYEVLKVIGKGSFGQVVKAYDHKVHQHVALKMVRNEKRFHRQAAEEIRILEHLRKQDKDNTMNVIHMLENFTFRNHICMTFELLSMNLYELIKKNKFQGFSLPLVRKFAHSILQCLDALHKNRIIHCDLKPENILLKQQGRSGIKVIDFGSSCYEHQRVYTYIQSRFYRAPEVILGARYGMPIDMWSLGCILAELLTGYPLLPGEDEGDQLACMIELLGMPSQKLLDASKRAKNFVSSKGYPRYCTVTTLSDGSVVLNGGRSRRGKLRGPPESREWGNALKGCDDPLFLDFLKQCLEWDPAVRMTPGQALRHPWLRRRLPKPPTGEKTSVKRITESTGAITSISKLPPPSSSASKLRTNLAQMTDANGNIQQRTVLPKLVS

[5] = thirteen patients with solid tumors, oral BID

Question: Which results are given for `O=C(O)c1ccc2c(c1)nc(Nc1cccc(Cl)c1)c1ccncc12` [Compound K, 5-(3-chlorophenylamino)benzo[c][2,6]naphthyridine-8-carboxylic acid]?
Answer: formalin-induced flinching, Phase II ([1]; 10-40 minute phase post-injection, single oral dose 30, 100, 200 mg/kg): significantly reduced formalin-induced flinching; also recorded: statistically significant effects were seen in two of the three test groups; formalin-induced flinching, Phase II ([1]; 10-40 minute phase, 30 mg/kg oral): effective; formalin-induced flinching, Phase II ([1]; 10-40 minute phase, 200 mg/kg oral): effective; formalin-induced flinching, Phase I ([1]; first 9 minute phase post-injection, single oral dose 30, 100, 200 mg/kg one hour prior to formalin): neither compound affected rates of flinching; also recorded: not statistically significant; inhibition of virus production (HIV-1): no significant inhibition of virus production; effect on CFA-induced thermal hyperalgesia [2]: Neither compound exhibited a statistically significant effect; CLs ([3]; 5 mg/kg IV): 41.7 mL/min/kg; Terminal T1/2 ([3]; 5 mg/kg IV): 5.0 h; % F0-inf ([3]; 25 mg/kg PO): 20.1%; AUC(0-inf) ([3]; in vivo, 5 mg/kg IV, 25 mM sodium phosphate buffer): 2000 ng·h/mL; Cmax ([3]; in vivo, 5 mg/kg IV): 6700 ng/mL; Vd ([3]; in vivo, 5 mg/kg IV, read-out: Vdss): 18.1 L/kg; AUC(0-inf) ([3]; in vivo, 25 mg/kg PO, 25 mM phosphate buffer): 2010 ng·h/mL; Cmax ([3]; in vivo, 25 mg/kg PO): 311 ng/mL; half-life ([3]; in vivo, 25 mg/kg PO, read-out: Terminal T1/2 (converted)): 7.1 h; inhibition of virus production (HIV-1 isolates): no significant inhibition of virus production; dose-limiting toxicities (DLTs) ([4]; Phase I patients): No dose-limiting toxicities (DLTs) have yet been observed; drug related toxicity ([4]; Phase I patients): no drug related toxicity; plasma exposures ([4]; after first dose on day 1 and day 21, Cohorts 1-3 (90, 160, 300 mg BID)): Dose related plasma exposures were observed; accumulation ([4]; day 1 vs day 21): No accumulation was observed; half-life ([4]; human, in vivo, at steady state, patients, oral BID, read-out: terminal half life (converted)): ~25 h; drug-related significant adverse events of grade 3 or higher [4, 5]: no drug-related significant adverse events of grade 3 or higher reported; tolerability of oral doses [4, 5]: well tolerated; xenograft tumor growth (xenograft tumor): single-agent potency in suppressing xenograft tumor growth; IC50 (DYRK2): 91 nM
